# Reference: US10010541B2, “Modulation of tissue transglutaminase activation in disease” (The Board of Trustees of the Leland Stanford Junior …, priority 2014, dated 2018)
# Read-outs that look alike come from different tables or passages of the source.
# Columns and labels:
# TG2 [1] = molecular target: T1, TG2 (Homo sapiens, UniProt P21980); details: cited from earlier work
# T1 sequence (P21980 1-687): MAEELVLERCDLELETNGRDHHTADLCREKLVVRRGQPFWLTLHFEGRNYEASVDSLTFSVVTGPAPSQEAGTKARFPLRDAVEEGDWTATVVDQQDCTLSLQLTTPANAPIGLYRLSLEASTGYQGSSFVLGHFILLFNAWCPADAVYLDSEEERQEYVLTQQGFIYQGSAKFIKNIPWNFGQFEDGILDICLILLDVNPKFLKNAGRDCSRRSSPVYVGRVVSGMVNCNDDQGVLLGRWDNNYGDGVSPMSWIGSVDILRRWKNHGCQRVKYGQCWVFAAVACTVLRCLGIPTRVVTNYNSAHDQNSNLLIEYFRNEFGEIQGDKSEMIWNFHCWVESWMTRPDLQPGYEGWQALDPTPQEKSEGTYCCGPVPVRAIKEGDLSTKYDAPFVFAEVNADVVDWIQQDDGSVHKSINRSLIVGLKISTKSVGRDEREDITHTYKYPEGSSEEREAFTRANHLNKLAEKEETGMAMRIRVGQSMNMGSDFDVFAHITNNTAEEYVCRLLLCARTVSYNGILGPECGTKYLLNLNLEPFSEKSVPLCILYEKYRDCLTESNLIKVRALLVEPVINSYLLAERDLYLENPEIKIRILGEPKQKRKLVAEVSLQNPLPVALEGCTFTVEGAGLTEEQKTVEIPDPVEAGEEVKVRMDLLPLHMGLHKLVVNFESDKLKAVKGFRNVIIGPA
# TG2 [2] = molecular target: T2, TG2 (Mus musculus, UniProt P21981); details: cited from earlier work
# T2 construct: host or cells: mice (in vivo)
# T2 sequence (P21981 1-686): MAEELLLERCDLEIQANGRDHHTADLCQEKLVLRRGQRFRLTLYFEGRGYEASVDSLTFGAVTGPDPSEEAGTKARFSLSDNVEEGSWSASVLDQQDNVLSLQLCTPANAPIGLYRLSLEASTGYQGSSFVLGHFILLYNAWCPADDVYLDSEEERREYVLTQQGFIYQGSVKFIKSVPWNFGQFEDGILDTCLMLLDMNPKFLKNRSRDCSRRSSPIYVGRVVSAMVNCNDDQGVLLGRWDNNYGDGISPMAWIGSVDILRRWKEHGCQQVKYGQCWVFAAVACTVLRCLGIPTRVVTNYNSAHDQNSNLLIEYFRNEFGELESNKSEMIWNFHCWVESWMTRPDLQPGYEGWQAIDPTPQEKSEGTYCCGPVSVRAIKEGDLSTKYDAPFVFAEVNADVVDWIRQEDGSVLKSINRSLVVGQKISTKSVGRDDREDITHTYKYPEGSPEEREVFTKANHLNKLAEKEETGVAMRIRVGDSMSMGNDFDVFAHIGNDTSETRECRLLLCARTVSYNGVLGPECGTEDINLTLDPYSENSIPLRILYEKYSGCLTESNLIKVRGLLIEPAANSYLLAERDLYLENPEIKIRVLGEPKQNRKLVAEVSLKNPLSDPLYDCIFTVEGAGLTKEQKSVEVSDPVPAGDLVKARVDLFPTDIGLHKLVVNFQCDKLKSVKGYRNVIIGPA
# TG2 [3] = molecular target: T1, TG2; details: cell culture; cited from earlier work
# TG1 = molecular target: T3, TG1 (Homo sapiens, UniProt P22735); details: cited from earlier work
# T3 sequence (P22735 1-817): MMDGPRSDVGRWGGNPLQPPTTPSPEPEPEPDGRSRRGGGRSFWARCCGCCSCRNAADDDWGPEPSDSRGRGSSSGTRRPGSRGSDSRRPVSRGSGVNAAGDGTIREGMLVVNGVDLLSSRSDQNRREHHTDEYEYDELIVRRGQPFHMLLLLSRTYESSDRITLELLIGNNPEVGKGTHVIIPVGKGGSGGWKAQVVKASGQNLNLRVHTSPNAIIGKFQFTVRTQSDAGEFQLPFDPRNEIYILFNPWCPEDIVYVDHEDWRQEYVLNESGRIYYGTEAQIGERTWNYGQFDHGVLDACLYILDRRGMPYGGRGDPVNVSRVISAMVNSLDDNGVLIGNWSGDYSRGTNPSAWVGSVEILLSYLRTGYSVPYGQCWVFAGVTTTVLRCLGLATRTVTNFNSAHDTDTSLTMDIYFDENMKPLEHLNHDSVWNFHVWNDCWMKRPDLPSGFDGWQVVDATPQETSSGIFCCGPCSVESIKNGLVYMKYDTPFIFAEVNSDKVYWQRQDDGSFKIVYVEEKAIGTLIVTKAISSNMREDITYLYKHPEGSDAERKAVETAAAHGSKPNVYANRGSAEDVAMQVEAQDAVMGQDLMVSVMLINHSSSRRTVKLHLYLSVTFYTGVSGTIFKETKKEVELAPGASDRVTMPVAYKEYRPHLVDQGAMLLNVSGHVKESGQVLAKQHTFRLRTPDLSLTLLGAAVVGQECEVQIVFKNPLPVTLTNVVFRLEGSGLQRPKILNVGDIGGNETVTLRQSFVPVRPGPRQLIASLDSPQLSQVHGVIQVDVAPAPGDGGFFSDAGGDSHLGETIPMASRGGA
# [4] = system: proinflammatory cytokines IL-6, PAI-1 and MIP1α; assay: circulating proinflammatory cytokines in LPS-induced murine sepsis (ELISA); type: in vivo, mice; details: septic mice (LPS 5 mg/kg iv); 1.5 mg/kg ip level; plasma at 3 hours
# Procedure: FIG. 3: The TG2 inhibitor CK996 reduces the proinflammatory cytokine load in septic mice at doses as low as 1.5 mg/kg: The graphs display the absolute circulating levels of the proinflammatory cytokines IL-6, PAI-1 and MIP1α in septic male BL6 mice as a function of the dose of intraperitoneally administered CK996 or ERW1041E. In each graph, the right y-axis depicts the relative levels of the respective cytokines over their background level in our control cohort. All septic mice in this study received lipopolysaccharide (LPS, 5 mg/kg i.v., at t=0) and either a TG2 inhibitor (CK996 or ERW1041E at 50, 15, 5.0 and 1.5 mg/kg i.p., at t=0 and 60 min) in vehicle (PBS with 5% DMSO, 2% Tween-80 and 2.5% hydroxypropyl-beta-cyclodextrin) or, for the septic control cohort, vehicle alone. An additional cohort defining the baseline cytokine levels received only intravenous vehicle and intraperitoneal inhibitor vehicle, respectively. At 3 hours the mice were euthanized and plasma collected in lithium heparin tubes. The levels of the respective proinflammatory cytokines were quantified using commercial ELISA kits according to the manufacturers' instructions. […]
# Having established that intraperitoneal administration of CK996 could suppress TG2 activity in septic mice, we next sought to determine whether this pharmacologic intervention had any effect on the circulating levels of the key proinflammatory cytokines in sepsis. To this end, we administered CK996 in doses of 1.5, 5.0, 15 or 50 mg/kg intraperitoneally to septic mice (5 mg/kg LPS, iv) and measured the level of the proinflammatory cytokines IL-6, PAI-1 and MIP1α in plasma that was collected at 3 hours after infusion of LPS.
# We therefore co-administered recombinant human thioredoxin protein (10 mg/kg, ip) along with CK996 (50 mg/kg, ip) to septic mice (5 mg/kg, iv) and quantified the load of proinflammatory cytokines as above.
# TG2 [5] = molecular target: T2, TG2; details: poly-I:C induced intestinal injury in mice; cited from earlier work
structure (smiles),measurement,setting,value
O=C(NC[C@@H]1CC(Br)=NO1)[C@@H]1CCCN1C(=O)OCc1cnc2ccccc2c1 [ERW1041E],potency as inhibitor of TG2,TG2 [1],moderately potent
same,catalytic activity of TG2,TG2 [2]; hypoxia-induced murine pulmonary hypertension,capable of blocking the catalytic activity of TG2
same,tolerability,TG2 [2]; twice daily administration for several weeks,well tolerated
same,catalytic activity of TG2,TG2 [3],capable of blocking the catalytic activity of TG2
same,potency against TG1 relative to TG2,TG1,comparably potent
same,"circulating levels of IL-6, PAI-1 and MIP1α",[4],no effect
same,catalytic activity of TG2,TG2 [5],capable of blocking the catalytic activity of TG2
